{"source": "ChEMBL document CHEMBL5257103", "about": "“Identification of small molecule inhibitors against MMP-14 via High-Throughput screening” (Bioorg Med Chem, 2023)", "key": {"[1]": {"target": "72 kDa type IV collagenase (Mus musculus) (UniProt P33434)", "sequence (P33434 whole entry)": "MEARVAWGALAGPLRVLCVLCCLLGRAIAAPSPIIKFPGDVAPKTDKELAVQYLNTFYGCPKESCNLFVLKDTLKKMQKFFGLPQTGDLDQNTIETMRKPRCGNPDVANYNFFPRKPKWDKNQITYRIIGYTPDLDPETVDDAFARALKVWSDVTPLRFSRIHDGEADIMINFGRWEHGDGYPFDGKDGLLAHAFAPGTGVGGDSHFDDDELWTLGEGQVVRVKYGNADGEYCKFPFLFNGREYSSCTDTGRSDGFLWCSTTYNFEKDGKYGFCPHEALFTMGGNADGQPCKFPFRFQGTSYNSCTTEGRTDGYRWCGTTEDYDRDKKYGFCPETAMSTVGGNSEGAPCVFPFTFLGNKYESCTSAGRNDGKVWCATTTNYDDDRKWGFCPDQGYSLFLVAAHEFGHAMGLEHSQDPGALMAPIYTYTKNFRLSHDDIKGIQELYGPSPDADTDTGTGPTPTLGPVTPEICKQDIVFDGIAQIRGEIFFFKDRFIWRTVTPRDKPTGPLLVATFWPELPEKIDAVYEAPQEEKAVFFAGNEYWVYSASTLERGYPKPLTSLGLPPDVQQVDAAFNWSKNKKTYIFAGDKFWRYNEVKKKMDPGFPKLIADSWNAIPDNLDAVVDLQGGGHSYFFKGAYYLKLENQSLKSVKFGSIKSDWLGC", "experiment": "Inhibition of MMP-2 in mouse fibroblast assessed as reduction in concanavalin-induced MMP-2 activity by measuring gelatin digestion incubated for 24 hrs by SDS-PAGE gel electrophoresis based gelatin zymography analysis", "format": "cell-based"}, "[2]": {"target": "T1, Matrix metalloproteinase-14 (Homo sapiens, UniProt P50281)", "experiment": "Inhibition of MMP-14 (unknown origin) using 5-FAM-TDVPNGFHVS (QXL520)-NH2 as fluorogenic substrate preincubated for 10 mins followed by substrate addition and measured for 50 mins by microplate reader assay"}, "[3]": {"target": "T1, Matrix metalloproteinase-14", "experiment": "Inhibition of MMP-14 (unknown origin) using 5-FAM-TDVPNGFHVS (QXL520)-NH2 as fluorogenic substrate at 12.5 to 200 uM preincubated for 10 mins followed by substrate addition and measured for 50 mins by microplate reader assay", "details": "dose 12.5-200 µM, time 60.0 min"}, "[4]": {"target": "T1, Matrix metalloproteinase-14", "experiment": "Inhibition of MMP-14 (unknown origin) using 5-FAM-TDVPNGFHVS (QXL520)-NH2 as fluorogenic substrate at 47.6 uM preincubated for 10 mins followed by substrate addition by primary HTS analysis relative to control"}, "[5]": {"target": "T2, Matrilysin (Homo sapiens) (UniProt P09237)", "T2 sequence (whole entry)": "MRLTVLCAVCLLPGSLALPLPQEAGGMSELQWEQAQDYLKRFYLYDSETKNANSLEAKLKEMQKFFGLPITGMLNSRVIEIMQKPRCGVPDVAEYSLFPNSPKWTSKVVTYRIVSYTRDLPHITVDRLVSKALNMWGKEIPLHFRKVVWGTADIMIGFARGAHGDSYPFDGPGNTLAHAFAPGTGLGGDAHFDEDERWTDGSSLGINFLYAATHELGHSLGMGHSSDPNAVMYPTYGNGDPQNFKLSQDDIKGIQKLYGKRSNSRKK", "experiment": "Inhibition of MMP-7 (unknown origin) using QXL520-gamma-Abu-Pro-Cha-Abu-Smc-His-Ala-Dab(5-FAM)-Ala-Lys-NH2 as fluorogenic substrate at 1 to 100 uM preincubated for 10 mins followed by substrate addition and measured for 25 mins by microplate reader assay", "details": "dose 1-100 µM, time 35.0 min"}, "[6]": {"target": "72 kDa type IV collagenase (Homo sapiens) (UniProt P08253)", "sequence (P08253 110-660 limits assumed)": "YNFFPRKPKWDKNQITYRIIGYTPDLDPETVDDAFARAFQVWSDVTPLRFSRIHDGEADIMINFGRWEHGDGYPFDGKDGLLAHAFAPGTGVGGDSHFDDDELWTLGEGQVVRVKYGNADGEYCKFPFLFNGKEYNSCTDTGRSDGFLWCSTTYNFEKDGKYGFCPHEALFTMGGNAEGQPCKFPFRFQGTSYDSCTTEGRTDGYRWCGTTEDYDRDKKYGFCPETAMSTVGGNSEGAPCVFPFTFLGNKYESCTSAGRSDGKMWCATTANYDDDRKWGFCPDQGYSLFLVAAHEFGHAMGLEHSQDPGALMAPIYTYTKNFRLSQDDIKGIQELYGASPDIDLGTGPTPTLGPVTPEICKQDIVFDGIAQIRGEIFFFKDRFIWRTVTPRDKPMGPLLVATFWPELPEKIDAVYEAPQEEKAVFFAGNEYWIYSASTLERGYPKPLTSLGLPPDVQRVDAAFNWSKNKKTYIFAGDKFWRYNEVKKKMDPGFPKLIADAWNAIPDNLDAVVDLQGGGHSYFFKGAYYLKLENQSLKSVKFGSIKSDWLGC", "experiment": "Inhibition of MMP-2 (unknown origin) using QXL520-gamma-Abu-Pro-Cha-Abu-Smc-His-Ala-Dab(5-FAM)-Ala-Lys-NH2 as fluorogenic substrate at 1 to 100 uM preincubated for 10 mins followed by substrate addition and measured for 25 mins by microplate reader assay", "details": "dose 1-100 µM, time 35.0 min"}, "[7]": {"target": "T1, Matrix metalloproteinase-14", "experiment": "Binding affinity to […] sensor chip immobilized MMP-14 catalytic domain (unknown origin) assessed as equilibrium dissociation constant by surface plasmon resonance analysis"}, "[8]": {"experiment": "Cytotoxicity against human HUVEC cells assessed as cell viability upto 100 uM incubated for 4 hrs by MTS assay", "format": "toxicity, cell-based", "details": "read-out: Activity"}, "Collagenase 3 [9]": {"target": "T3, Collagenase 3 (Homo sapiens, UniProt P45452)", "experiment": "Inhibition of MMP-13 (unknown origin) using QXL520-gamma-Abu-Pro-Cha-Abu-Smc-His-Ala-Dab(5-FAM)-Ala-Lys-NH2 as fluorogenic substrate preincubated for 10 mins followed by substrate addition and measured for 25 mins by microplate reader assay"}, "[10]": {"target": "T4, Matrix metalloproteinase-9 (Homo sapiens, UniProt P14780)", "T4 sequence (P14780 whole entry)": "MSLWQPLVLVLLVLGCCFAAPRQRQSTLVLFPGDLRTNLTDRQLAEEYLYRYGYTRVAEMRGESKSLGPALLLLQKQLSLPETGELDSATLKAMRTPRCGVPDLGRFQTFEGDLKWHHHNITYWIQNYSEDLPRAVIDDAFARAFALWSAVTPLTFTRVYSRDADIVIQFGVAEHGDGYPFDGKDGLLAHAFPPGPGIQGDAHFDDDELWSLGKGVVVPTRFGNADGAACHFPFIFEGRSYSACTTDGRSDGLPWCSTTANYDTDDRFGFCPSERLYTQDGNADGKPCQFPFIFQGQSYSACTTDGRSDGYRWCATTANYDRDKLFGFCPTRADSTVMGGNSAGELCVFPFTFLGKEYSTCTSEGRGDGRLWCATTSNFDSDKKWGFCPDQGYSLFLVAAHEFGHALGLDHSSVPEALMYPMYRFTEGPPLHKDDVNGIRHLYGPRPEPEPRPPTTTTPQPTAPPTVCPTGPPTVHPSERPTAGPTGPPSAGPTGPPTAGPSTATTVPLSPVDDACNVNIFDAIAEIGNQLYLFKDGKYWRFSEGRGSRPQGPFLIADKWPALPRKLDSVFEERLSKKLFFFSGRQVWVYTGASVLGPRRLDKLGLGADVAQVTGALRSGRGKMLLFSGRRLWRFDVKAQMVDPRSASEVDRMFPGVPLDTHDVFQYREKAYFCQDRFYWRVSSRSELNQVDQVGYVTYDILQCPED", "experiment": "Inhibition of MMP-9 (unknown origin) using QXL520-gamma-Abu-Pro-Cha-Abu-Smc-His-Ala-Dab(5-FAM)-Ala-Lys-NH2 as fluorogenic substrate preincubated for 10 mins followed by substrate addition and measured for 25 mins by microplate reader assay"}, "Collagenase 3 [11]": {"target": "T3, Collagenase 3", "experiment": "Inhibition of MMP-13 (unknown origin) using QXL520-gamma-Abu-Pro-Cha-Abu-Smc-His-Ala-Dab(5-FAM)-Ala-Lys-NH2 as fluorogenic substrate at 1 to 100 uM preincubated for 10 mins followed by substrate addition and measured for 25 mins by microplate reader assay", "details": "dose 1-100 µM, time 35.0 min"}, "[12]": {"target": "T4, Matrix metalloproteinase-9", "experiment": "Inhibition of MMP-9 (unknown origin) using QXL520-gamma-Abu-Pro-Cha-Abu-Smc-His-Ala-Dab(5-FAM)-Ala-Lys-NH2 as fluorogenic substrate at 1 to 100 uM preincubated for 10 mins followed by substrate addition and measured for 25 mins by microplate reader assay", "details": "dose 1-100 µM, time 35.0 min"}, "[13]": {"target": "72 kDa type IV collagenase (Homo sapiens) (UniProt P08253)", "experiment": "Inhibition of MMP-2 (unknown origin) using QXL520-gamma-Abu-Pro-Cha-Abu-Smc-His-Ala-Dab(5-FAM)-Ala-Lys-NH2 as fluorogenic substrate at 100 uM preincubated for 10 mins followed by substrate addition and measured for 25 mins by microplate reader assay", "details": "time 35.0 min"}, "[14]": {"target": "T4, Matrix metalloproteinase-9", "experiment": "Inhibition of MMP-9 (unknown origin) using QXL520-gamma-Abu-Pro-Cha-Abu-Smc-His-Ala-Dab(5-FAM)-Ala-Lys-NH2 as fluorogenic substrate at 100 uM preincubated for 10 mins followed by substrate addition and measured for 25 mins by microplate reader assay", "details": "time 35.0 min"}, "[15]": {"target": "T2, Matrilysin (Homo sapiens)", "experiment": "Inhibition of MMP-7 (unknown origin) using QXL520-gamma-Abu-Pro-Cha-Abu-Smc-His-Ala-Dab(5-FAM)-Ala-Lys-NH2 as fluorogenic substrate at 100 uM preincubated for 10 mins followed by substrate addition and measured for 25 mins by microplate reader assay", "details": "time 35.0 min"}, "Collagenase 3 [16]": {"target": "T3, Collagenase 3", "experiment": "Inhibition of MMP-13 (unknown origin) using QXL520-gamma-Abu-Pro-Cha-Abu-Smc-His-Ala-Dab(5-FAM)-Ala-Lys-NH2 as fluorogenic substrate at 100 uM preincubated for 10 mins followed by substrate addition and measured for 25 mins by microplate reader assay", "details": "time 35.0 min"}}, "note": "The source made the active and inactive calls. No cut-off for these calls is given here.", "data": [{"smiles": "Nc1cc(Cl)c2cccnc2c1O", "values": [{"measurement": "inhibition", "setting": "[1]", "value": "Active"}, {"measurement": "IC50", "setting": "[2]", "value": 71.2, "unit": "µM"}, {"measurement": "inhibition", "setting": "[3]", "value": "Dose-Dependent Effect"}]}, {"smiles": "CCCC(C)C1(CC)C(=O)NC(=O)NC1=O", "note": "(stereo unspecified)", "values": [{"measurement": "inhibition", "setting": "[4]", "value": "> 85", "unit": "%"}]}, {"smiles": "Oc1c(Cl)cc(Cl)c2cccnc12", "note": "[CHLOROXINE]", "values": [{"measurement": "inhibition", "setting": "[1]", "value": "Active"}, {"measurement": "IC50", "setting": "[2]", "value": 25.6, "unit": "µM"}, {"measurement": "inhibition", "setting": "[5]", "value": "inactive"}, {"measurement": "inhibition", "setting": "[6]", "value": "inactive"}, {"measurement": "Kd", "setting": "[7]", "value": 2.4, "unit": "µM"}, {"measurement": "viability at 4 h, up to 100 µM", "setting": "[8]", "value": "> 95", "unit": "%"}, {"measurement": "IC50", "setting": "Collagenase 3 [9]", "value": 19.6, "unit": "µM"}, {"measurement": "inhibition", "setting": "[4]", "value": "Active"}, {"measurement": "IC50", "setting": "[10]", "value": 15.9, "unit": "µM"}]}, {"smiles": "Oc1c(I)cc(Cl)c2cccnc12", "note": "[CLIOQUINOL]", "values": [{"measurement": "inhibition", "setting": "[1]", "value": "Active"}, {"measurement": "inhibition", "setting": "Collagenase 3 [11]", "value": "inactive"}, {"measurement": "inhibition", "setting": "[12]", "value": "inactive"}, {"measurement": "IC50", "setting": "[2]", "value": 26.9, "unit": "µM"}, {"measurement": "inhibition", "setting": "[5]", "value": "inactive"}, {"measurement": "inhibition", "setting": "[13]", "value": "< 5", "unit": "%"}, {"measurement": "inhibition", "setting": "[6]", "value": "inactive"}, {"measurement": "Kd", "setting": "[7]", "value": 1.2, "unit": "µM"}, {"measurement": "viability at 4 h, up to 100 µM", "setting": "[8]", "value": "> 95", "unit": "%"}, {"measurement": "inhibition", "setting": "[14]", "value": "< 5", "unit": "%"}, {"measurement": "inhibition", "setting": "[15]", "value": "< 5", "unit": "%"}, {"measurement": "inhibition", "setting": "Collagenase 3 [16]", "value": "< 5", "unit": "%"}, {"measurement": "inhibition", "setting": "[4]", "value": 83, "unit": "%"}]}]}
